This is an account of results in patent US7928090B2, “External preparation composition” (Lion Corporation, priority 2002, dated 2011).

Data set [1] relates to back skin of hairless mice irradiated with UVB. Description: Coarse texture-improving test. Type of data set: in vivo, hairless mice (hos: HR-1). The settings on record: 0.05% in ethanol/propylene glycol (7:3), 100 μL, 4 weeks; texture intersection points relative to non-irradiated group (control 24). How it is done: Four (4) hairless mice per 1 group (hos: HR-1, 10 weeks of age, female) were irradiated on the back skin once a day with UVB at 40 mJ/cm^2 three times a week over a period of 6 weeks. After finishing irradiation, each 100 μL of an ethanol/propylene glycol (7:3) solution containing 0.05% of various acyl glucosamine derivatives shown in the following Table 4 or an ethanol/propylene glycol (7:3) solution as a control was applied on the mouse back in a frequency of once a day and five times a week over 4 weeks.
After finishing application, a replica agent (brand name SILFLO®; manufactured by UK FLEXICO DEVELOPMENTS LTD.) was used to obtain a replica of a mouse back skin. A replica of a UV-non-irradiated group (4 heads) was obtained as a control in the same manner.
The enlarged photographs of the respective replicas were taken through a macro lens (magnification: four times), and the photographs were used to evaluate “coarsening of the texture”.
The coarseness of the texture was defined by a “number of texture intersection point”, wherein a point in which three or more sulci cutis are joined is counted as one intersection point, and the number of the texture intersection points present in a square of 1 cm×1 cm was counted on the replica photograph.
An average point for the respective groups was calculated, and the texture-improving rate was calculated according to the following equation (III). Texture-improving rate (%)=[(number of texture intersection of applied group)/(number of texture intersection point of non-irradiated group)]×100 (III)

The next data set deals with guinea pig skin. Nature of the data set: Continuous irritative test of guinea pig skin (Draize method). The conditions noted are these: Table 1; 0.5% in ethanol/propylene glycol (7:3), 50 μL once a day, 3 days straight; total of erythema and edema, full marks 8 points. Type of data set: in vivo, guinea pig (Hartley series). How it is done: Each left and right two spots (4 spots/head) of applying parts having a frame of 2 cm×2 cm were provided on the back of a shaved guinea pig (Hartley series, 7 weeks of age, female, N=10), and each 50 μL of an ethanol/propylene glycol (7:3) solution containing 0.5% of the respective acyl glucosamine derivatives shown in the following Table 1 was applied once a day on the respective frames.
A skin irritative score after application for 3 days straight was evaluated according to the following evaluation criteria (Draize method). The above irritative score was shown by the total points (full marks: 8 points) of erythema and edema.
Evaluation Criteria of Skin Irritative Score:
3: middle to strong erythema
4: very strong erythema to crust
1: very slight edema formation
2: slight edema formation
3: middle edema formation
4: strong edema formation

The next data set concerns acne patients. Nature of the data set: Acne-improvement evaluation. Type of data set: in vivo, human. The conditions noted are these: essence with 0.05%, one month; for Evaluation X (worsened), number of subjects / Evaluation Δ (no change), number of subjects / Evaluation ⊚ (notably improved), number of subjects / Evaluation ◯ (improved), number of subjects: applied on face several times a day; for Acne treating effect: percentage of subjects rated improved or better. The method, then:
Prepared was an essence for acne shown in the following composition example in which 0.05% of various acyl glucosamine derivatives shown in the following Table 6 was blended. An essence which was not blended with an acyl glucosamine derivative was prepared as a control.
Sixty acne patients were picked up as subjects to apply everyday the respective essences on the faces thereof several times a day, and the therapeutic effect against the acnes was visually evaluated a month later according to four degrees of the following evaluation criteria.
In the four degree evaluation described above, improvement (∘) or better effect (⊚) was regarded as “effective for treating acnes”, and the subjects showing a treating effect were shown by a numerical value (percentage).

Data set [2] concerns pigmentation on the backs of color guinea pigs. Nature of the data set: Whitening evaluation (UV-induced pigmentation). Type of data set: in vivo. Details: key: +++: notably improved; ++: improved; +: a little improved; ±: no change. The settings on record: 0.05% in ethanol/propylene glycol (7:3), 30 μL once a day, five times a week, 4 weeks; visual change in pigmentation. The method, then: Back body hair of color guinea pigs were shaved by means of a hair clipper and a shaver, and they were irradiated with UV rays once a day, 4 times a week and 8 times in total, whereby 4 parts of pigmentation having an area of about 2.25 cm^2 were formed on the backs of the respective guinea pigs.
Each 30 μL of an ethanol/propylene glycol (7:3) solution containing 0.05% of various acyl glucosamine derivatives shown in the following Table 7 was applied thereon in a frequency of once a day and five times a week over 4 weeks, and a change in the pigmentation was visually evaluated according to four degrees of the following evaluation criteria. The solution containing no acyl glucosamine derivative was used for a comparative example.

The subject of data set [3] is skin roughness in the inside of a forearm of a human being. Description: Skin roughness-improving test (SDS-induced skin roughness). Type of data set: in vivo. The settings on record: hydrophilic ointment with 0.05%, twice a day, 3 days; conductance relative to ointment with no tested substance = 100. How it is done: A 10% SDS solution was used to artificially form a skin roughness in the inside of a forearm of a human being, and a hydrophilic ointment blended with 0.05% of various acyl glucosamine derivatives shown in the following Table 5 was applied thereon twice a day.
The skin roughness-improving degree observed 3 days later after application was evaluated using a change in a stratum corneum water content as an index. The stratum corneum water content is measured in terms of a conductance (μS). The improving degree was shown by a relative value, wherein the conductance observed when applying the hydrophilic ointment blended with no acyl glucosamine derivative was set at 100, and the skin roughness-improving rate was calculated according to the following equation (IV). Skin roughness-improving rate (%)=[(conductance observed when applying the ointment blended with the tested substance)/(conductance observed when applying the ointment blended with no tested substance)]×100 (IV)

The test system of data set [4] is back skin of hairless mice irradiated with UVB. Nature of the data set: Wrinkle-improving test. Type of data set: in vivo, hairless mice (hos: HR-1). The settings on record: 0.05% in ethanol/propylene glycol (7:3), 100 μL once a day, five times a week, 8 weeks; versus control group. The method, then: Four (4) hairless mice per 1 group (hos: HR-1, 10 weeks of age, female) were irradiated on the back skin once a day with UVB at 50 mJ/cm^2 five times a week over a period of 10 weeks. After finishing irradiation, each 100 μL of an ethanol/propylene glycol (7:3) solution containing 0.05% of various acyl glucosamine derivatives shown in the following Table 3 was applied on the mouse back in a frequency of once a day and five times a week over 8 weeks.
After finishing application for 8 weeks, the degree of wrinkles was visually evaluated according to the following evaluation criteria and calculation equation. A control group applied with the ethanol/propylene glycol (7:3) solution was evaluated as a control in the same manner.
Evaluation Criteria of the Degree of Wrinkles:
Evaluation point 0: a lot of fine striations is present on the back and the flank; fine striations run in a direction from the head to the tail; and the striations appear or disappear with the motion of the mouse.
Evaluation point 1: all fine striations along the spine are not observed; a few shallow and coarse wrinkles run perpendicularly to the head-to-tail direction; and the striations appear or disappear with the motion of the mouse.
The respective bodies were evaluated by an evaluation point of a 0.5 unit to calculate an average point for the respective groups, and the wrinkle-improving rate was calculated for the respective groups according to the following equation (II). Wrinkle-improving rate (%)=[(average value of the control group−average value of a glucosamine derivative-applied group)/(average value of the control group)]×100 (II)

`CCCCCCCCCCCCCCCCCCOCCOCCOCCOCCOCCOC(=O)N[C@H]1C(O)O[C@H](CO)[C@@H](O)[C@@H]1O` (stereo partly drawn) [N-POE (5) octadecyletheroxycarbonyl-D-glucosamine] came in with a Texture-improving rate in data set [1] of 92%. In the data set with guinea pig skin, this compound gave a Draize score of 0.2 points. In addition, in the data set with acne patients, the “Evaluation X (worsened), number of subjects” value (“Evaluation X (worsened)” below) was determined as 0; the “Evaluation Δ (no change), number of subjects” value (shortened to “Evaluation Δ (no change)”) came to 3; the “Evaluation ⊚ (notably improved), number of subjects” value (from here on “Evaluation ⊚ (notably improved)”) is recorded as 0; the “Evaluation ◯ (improved), number of subjects” value (“Evaluation ◯ (improved)” below) came out at 2. The compound also registered an Acne treating effect in the data set with acne patients of 40%. In addition, the Whitening-improving effect entry in data set [2] is “++”. Further, in data set [3], the Skin roughness-improving rate is recorded as 128%. Besides, the Wrinkle-improving rate in data set [4] came to 73%.
With `CCCCCCCCCCCCCCCCCCCCCCOCCOCCOCCOCCOCCOCCOCCOCCOCCOCCOC(=O)N[C@H]1C(O)O[C@H](CO)[C@@H](O)[C@@H]1O` (stereo partly drawn) [N-POE (10) docosyletheroxycarbonyl-D-glucosamine], in data set [1], the Texture-improving rate is 88%. Also, the Draize score with guinea pig skin came out at 0.1 points. Further, in the data set on acne patients, the “Evaluation X (worsened)” value worked out at 0; the “Evaluation Δ (no change)” value amounted to 3; the “Evaluation ⊚ (notably improved)” value is given as 0; the “Evaluation ◯ (improved)” value is reported as 2. Further, in the data set with acne patients, the Acne treating effect is recorded as 40%. Moreover, the Whitening-improving effect result in data set [2] is recorded as “++”. The compound further gave a Skin roughness-improving rate in data set [3] of 138%. The compound further showed a Wrinkle-improving rate in data set [4] of 82%.
In the case of `CCCCCCCCCCCCCCCCOCCOCCOC(=O)N[C@H]1C(O)O[C@H](CO)[C@@H](O)[C@@H]1O` (stereo partly drawn) [N-POE (2) hexadecyletheroxycarbonyl-D-glucosamine], in data set [1], the Texture-improving rate is 89%. In addition, in the data set with guinea pig skin, the Draize score was found to be 0.1 points. Besides, in the data set on acne patients, the “Evaluation X (worsened)” value worked out at 0; the “Evaluation Δ (no change)” value came to 2; the “Evaluation ⊚ (notably improved)” value is given as 0; the “Evaluation ◯ (improved)” value came to 3. In the data set with acne patients, this compound displayed an Acne treating effect of 60%. Further, the Whitening-improving effect entry in data set [2] is listed as “++”. The compound further showed a Skin roughness-improving rate in data set [3] of 139%. The compound also came in with a Wrinkle-improving rate in data set [4] of 72%.
